From patent US20220249564A1, “PDL1 POSITIVE NK CELL CANCER TREATMENT” (City of Hope, priority 2019, published 2022)

How the values were obtained:
[1] = system: PD-L1 expression on NK cells; test: PD-L1 expression on NK cells incubated with K562 cells in the presence of pathway inhibitors; format: cell-based, human; settings: inhibitor 1 μM or 10 μM, FIGS. 6B, 6C
Protocol: (§1) FIGS. 6A-6J present data showing signaling pathways activating PD-L1^+ NK cells. […] “D1+” represents PD-L1^+ NK cells from donor 1, while “D1−” represents PD-L1^− NK cells from donor 1, each purified by FACS sorting. Similar definitions are applied to “D2+”, “D2−”, “D3+”, and “D3−”. Expression of Cd274 (PD-L1), Cd226, Tbx21, Eomes, Smad3 and Aka are highlighted by black arrows. […] The percentages of PD-L1+ NK cells were measured by flow cytometry. […] Data were generated from five (5) independent donors, and the experiment was repeated three times. […] Relative promoter activity was measured by luciferase assay after 48 hours. […] The experiments were repeated three times. […] The experiments were repeated three times.
To investigate mechanisms by which PD-L1 is induced in NK cells by myeloid leukemia cells, an RNA microarray was performed to profile gene expression in PD-L1^+ NK cells vs PD-L1^− NK cells, both of which were FACS-purified from bulk NK cells after being co-cultured with K562 cells. […] They were subsequently incubated with K562 myeloid leukemia cells and then PD-L1 expression on NK cells was measured. […] A PD-L1 promoter was cloned 2.1 kb upstream of the transcription start site, co-transfected with genes for specific transcription factors in 293T cells, and the activity of the PD-L1 promoter was measured by luciferase assay. […]

[2] = system: NK cells incubated with K562 cells; test: p38 inhibitors on AZ-induced PD-L1, CD107α and IFN-γ expression of NK cells; format: cell-based, human; settings: presence of K562 tumor cells, 1 μM inhibitor; for AZ-induced PD-L1 expression: FIG. 6H; for AZ-induced CD107α expression of NK cells / AZ-induced IFN-γ expression of NK cells: FIG. 6J
Protocol: as §1
Two paired groups were compared by paired t-test. One-way ANOVA with repeated measures or linear mixed model was used to compare three (3) or more donor-matched groups. P values were adjusted by the Holm-Sidak method.
(§2) Cells were suspended in 100 μl PBS with 2% FBS and incubated with the indicated mAb (Table 2) at room temperature for 20 mins. After washing with 2% FBS for one time and PBS for another time, cells were fixed in 1% paraformaldehyde buffer for immediate analysis by flow cytometry using a LSRII flow cytometer (BD Biosciences). Cells used for sorting were re-suspended in RPMI 1640 containing 10% FBS. For intracellular flow cytometry, cells were permeabilized and fixed using the Foxp3/Transcription Factor Fixation/Permeabilization kit (eBioscience, Cat #00-5523-00). Data were analyzed by FlowJo software.

ADCC = settings: Fc domain modification; cited from earlier work
[3] = system: PD-L1 expression on expanded human primary NK cells; test: PD-L1 expression on expanded human primary NK cells with AZ; format: cell-based; settings: expanded 7 days with K562 feeder cells, with or without 5 ng/ml IL-12 and IL-18 for 20 h; FIG. 15
Protocol: Expanded human primary NK cells for 7 days with indicated medium (R10: RPMI1640+10% FBS; MACS: MACS medium+5% human serum; SCGM: SCGM medium+5% human serum) were treated with or without 5 ng/ml IL-12 and IL-18 for 20 h in the presence of AZ or not. The expression of PD-L1 were examined by flow cytometry. P values of multiple comparison were analyzed using one-way ANOVA. Multiple comparison test was adjusted by Holm-Sidak method. ****, P<0.0001.
Expanded human primary NK cells for 7 days with indicated medium (R10: RPMI1640+10% FBS; MACS: MACS medium+5% human serum; SCGM: SCGM medium+5% human serum) were treated with or without 5 ng/ml IL-12 and IL-18 for 20 h in the presence of AZ or not. The expression of PD-L1 were examined by flow cytometry (FIG. 15). PBMC from lung cancer patients were isolated and examined for PD-L1 expression by flow cytometry (FIG. 16).

[4] = system: p38, p-ERK, p-AKT, p-mTOR in NK cells; test: Downstream kinase phosphorylation in NK cells after AZ (intracellular flow cytometry, immunoblot); format: cell-based, human; settings: NK cells with K562 cells, AZ treatment
Protocol: as §1
FIG. 13 presents data showing induction of p38-NF-κB signaling in primary human NK cells by the anti-PD-L1 antibody AZ. […] The histograms provided in the upper panel represent quantification of various phosphorylated kinases expressed in NK cells, followed by a graphical summary of the data (n=3) below each histogram. One-way ANOVA with repeated measures or linear mixed model was used to compare three (3) or more donor-matched groups and P values were adjusted by the Holm-Sidak method. ****, P<0.0001; NS=not significant.
as §2
Cells were pelleted and lysed in protein extraction reagent (Thermo Fisher, Cat. #78510) supplied with proteinase inhibitors. Standard procedures were used for immunoblotting. Primary antibodies used were PD-L1 (Cell Signaling Technology, Cat. #13684), GAPDH (Cell Signaling Technology, Cat. #2118), β-actin (Cell Signaling Technology, Cat. #4967), p-p38 (Cell Signaling Technology, Cat. #9211) and p-AKT (Cell Signaling Technology, Cat. #9271). Proteins were detected using goat anti-rabbit HRP-conjugated secondary antibodies (Cell Signaling Technology, Cat. #7074).

PD-L1+ NK cells = test: NK cell CD107α and IFN-γ expression after AZ treatment (flow cytometry); format: cell-based, human
Protocol: (§3) FIGS. 3A-3D present data showing that anti-PD-L1 monoclonal antibody atezolizumab (AZ) activates PD-L1 signaling in NK cells and enhances NK cell function. […] The P values were corrected for multiple comparisons by Holm's method. […] The experiment was repeated three times with three different donors. […] NK cells were sorted and the relative levels of PD-L1 mRNA expression were measured by qRT-PCR. The experiment was repeated three times. […] Two paired groups were compared by paired t-test. One-way ANOVA with repeated measures or linear mixed model was used to compare three (3) or more donor-matched groups. P values were adjusted by the Holm-Sidak method.
Peripheral blood samples from healthy donors were obtained from The American Red Cross. Human PBMCs were isolated by Percoll density gradient centrifugation. Primary human NK cells were enriched from the peripheral blood of healthy donors using an NK Cell Enrichment Kit (Miltenyi Biotec, Cat #0.130-115-818). Enriched NK cells with purity about 90% were either sorted by fluorescence-activated cell sorting (FACS) to the purity around 96% and then used or used immediately for in vitro cell culture experiments. […] All cell lines were maintained in RPMI 1640 medium supplemented with 10% FBS and 100 U/ml penicillin/streptomycin. For co-culture stimulation experiments, PBMCs, enriched NK cells, or FACS-sorted NK cells were co-incubated with various cell lines including K562, MOLM-13, AML3, RPMI 8226 or MV-4-11 at an effector/target (E/T) ratio of 10:1. […] For transwell assay experiments, 5×10^5 enriched human primary NK cells were seeded in the upper chamber of a transwell plate. The lower chamber of the transwell plate was seeded with 5×10^4 K562 myeloid leukemia cells. The transwell plate with cells was incubated at 37° C. for 20 hr.
Cells were suspended in 100 μl PBS with 2% FBS and incubated with the indicated mAb (Table 2) at room temperature for 20 mins. […] Data were analyzed by FlowJo software.

[5] = system: PD-L1 expression on NK cells; test: PD-L1 expression of K562-pretreated NK cells after AZ (qRT-PCR, flow cytometry); format: cell-based, human; settings: time dependent
Protocol: as §3
as §2, with “software. […]” for “software.”

[6] = system: PD-L1-KO K562 myeloid leukemia cells; test: NSG mouse model with human primary NK cells and PD-L1-KO K562 cells; format: in vivo, NSG mice
From the text: After 6 days, mice were sacrificed and NK cells were isolated and assessed for PD-L1 expression by flow cytometry. […] PBS instead of IgG1 was used as placebo because AZ lacks antibody-dependent cellular cytotoxicity activity. After 6 days (three treatments), mice were sacrificed and human NK cells were examined for their expression of granzyme B, CD107α, and IFN-γ, while the number of PD-L1-knockout K562 myeloid leukemia cells (as shown in FIG. 5C) was enumerated by flow cytometry. […] Two paired groups were compared by paired t-test. One-way ANOVA with repeated measures or linear mixed model was used to compare three (3) or more donor-matched groups. P values were adjusted by the Holm-Sidak method. Kaplan-Meier method was used to estimate survival functions and log-rank test was applied to group comparisons.
8-week old NSG mice were intravenously (i.v.) injected with PD-L1 knockout K562 myeloid leukemia cells at a concentration of 2 million cells per mouse. […] Mice in the atezolizumab (AZ)-treated or control group were simultaneously i.p-injected with 200 μg AZ in 200 μL PBS or 200 μL PBS per mouse. Cytokines and AZ were injected every other day for a total of […]. The numbers of NK cells and tumor cells were examined at day 6 post injection.

[7] = system: PD-L1 expression on NK cells; test: Induction of PD-L1 expression on NK cells by NK cell-activating cytokines; format: cell-based, human; settings: alone or in combination with other cytokines, 10 ng/mL, 24 hour; FIG. 11F
Protocol: The cytotoxicity levels of total NK cells incubated with medium alone were served as control. The cytokine-treated bulk NK cells were permeabilized and gated PD-L1+ and PD-L1^− cells to measure the MFI of IFN-γ by flow cytometry assay as shown in FIG. 11D. […] Summary graph (n=3) is shown at the bottom. […] Summary graph (n=3) is shown at the bottom. Two-sample t test was used for 2-group comparisons. One-way ANOVA was used to compare three (3) or more groups and P values were adjusted by the Holm-Sidak method. **, P<0.01; ***, P<0.001; ****, P<0.0001; NS=not significant.
Peripheral blood samples from healthy donors were obtained from The American Red Cross. Human PBMCs were isolated by Percoll density gradient centrifugation. Primary human NK cells were enriched from the peripheral blood of healthy donors using an NK Cell Enrichment Kit (Miltenyi Biotec, Cat #0.130-115-818). Enriched NK cells with purity about 90% were either sorted by fluorescence-activated cell sorting (FACS) to the purity around 96% and then used or used immediately for in vitro cell culture experiments. NK cells were cultured in RPMI 1640 supplemented with 20% FBS, 100 U/ml penicillin/streptomycin, and 10 ng/ml IL-2. […]
Cells were suspended in 100 μl PBS with 2% FBS and incubated with the indicated mAb (Table 2) at room temperature for 20 mins. […] Data were analyzed by FlowJo software. […]

[8] = NK cells stimulated with PD-L1 knock-out K562 cells 20 hours, then 20 μg/mL AZ 4 hours, FIG. 3A
[9] = vs placebo (PBS), i.p. every other day, after 6 days, FIG. 5B

## Cc1ccc(S(=O)(=O)N[C@@H](Cc2ccccc2)C(=O)CCl)cc1 [TPCK]
[1]
  PD-L1 expression on NK cells: regulation role of p65 in PD-L1 expression was confirmed

## C[S+]([O-])c1ccc(-c2nc(-c3ccncc3)c(-c3ccc(F)cc3)[nH]2)cc1 (stereo not drawn) [SB203580]
[2]
  AZ-induced PD-L1 expression: reduce
  AZ-induced CD107α expression of NK cells: inhibited
  AZ-induced IFN-γ expression of NK cells: inhibited

## Cn1ncc(Cl)c1-c1cc(C(=O)N[C@H](CN)Cc2cccc(F)c2)sc1Cl [afuresertib]
[1]
  PD-L1 expression on NK cells: significantly reduced

## atezolizumab [AZ]
ADCC
  ADCC effect: absence
[3]
  expression of PD-L1 on expanded human primary NK cells: further enhanced
[4]; IL-2 10 ng/mL, FIG. 13, 6G
  level of p38: increased
[4]; FIG. 13
  level of p-ERK: not increased
  level of p-mTOR: not increased
[4]; FIG. 13, 6G
  level of p-AKT: not increased
PD-L1+ NK cells; [8]
  expression of CD107a in PD-L1+ NK cells: increased
  expression of IFN-γ in PD-L1+ NK cells: increased
PD-L1+ NK cells; lentiviral PD-L1-transduced NK cells treated with AZ, FIG. 3B
  IFN-γ production of PD-L1-transduced NK cells: even more dramatically increased
[5]; NK cells pretreated with K562, 20 μg/mL AZ, FIG. 3C
  PD-L1 expression of NK cells, mRNA level: further elevated
[5]; NK cells pretreated with K562, AZ, FIG. 3D
  PD-L1 expression of NK cells, protein level: further elevated
[6]; [9]
  NK cell expression of CD107α: significant increase
  NK cell expression of IFN-γ: significant increase
  NK cell expression of granzyme B: significant increase
[6]; vs placebo-treated mice, upon sacrifice, FIG. 5C
  tumor burden (number of PD-L1-KO K562 cells): significantly lower

## recombinant IFN-γ: recombinant interferon gamma
[7]
  PD-L1 expression on NK cells: could not induce

## Oc1ccc(-c2nc(-c3ccncc3)c(-c3ccc(F)cc3)[nH]2)cc1 [SB202190]
[2]
  AZ-induced PD-L1 expression: reduce
  AZ-induced CD107α expression of NK cells: inhibited
  AZ-induced IFN-γ expression of NK cells: inhibited
